Assays:
Experiment in all cases: relative viability (nuclei count vs DMSO), 5 days (fraction); higher = more cells survive
[1] = test system: A-427
Procedure, shortened: (§1)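 Lung cancer cell lines in 1536-well plates got either a single drug or a fixed anchor-drug dose together with five library-drug doses (not always all listed) in √10 steps, by pin tool, on the day after seeding. Nuclei were counted after 5 days, and relative viability is the treated-to-vehicle ratio of nuclei counts. Values are medians of duplicate plates.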

[2] = test system: H3255
Procedure, shortened: as §1

[3] = test system: HARA
Procedure, shortened: as §1

[4] = test system: HCC-15
Procedure, shortened: as §1

[5] = test system: HCC-366
Procedure, shortened: as §1

[6] = test system: LXF-289
Procedure, shortened: as §1

[7] = test system: NCI-H1437
Procedure, shortened: as §1

[8] = test system: NCI-H1755
Procedure, shortened: as §1

[9] = test system: NCI-H1793
Procedure, shortened: as §1

[10] = test system: NCI-H1915
Procedure, shortened: as §1

[11] = test system: NCI-H1975
Procedure, shortened: as §1

[12] = test system: NCI-H2009
Procedure, shortened: as §1

[13] = test system: NCI-H2023
Procedure, shortened: as §1

[14] = test system: NCI-H2405
Procedure, shortened: as §1

[15] = test system: NCI-H3122
Procedure, shortened: as §1

[16] = test system: NCI-H441
Procedure, shortened: as §1

[17] = test system: NCI-H460
Procedure, shortened: as §1

[18] = test system: NCI-H596
Procedure, shortened: as §1

[19] = test system: NCI-H650
Procedure, shortened: as §1

[20] = test system: PC-14
Procedure, shortened: as §1

[21] = test system: PC-3 [JPC-3]
Procedure, shortened: as §1

[22] = test system: SK-LU-1
Procedure, shortened: as §1

[23] = test system: UMC-11
Procedure, shortened: as §1

Cc1cnc(-c2cnc(NCCNc3ccc(C#N)cn3)nc2-c2ccc(Cl)cc2Cl)[nH]1 + O=C(CCCCCCC(=O)Nc1ccccc1)NO [Vorinostat] (partner 1 µM)
relative viability ([1]; first compound 0.08 µM): 0.868 | relative viability ([1]; first compound 0.253 µM): 0.826 | relative viability ([1]; first compound 0.8 µM): 0.826 | relative viability ([1]; first compound 2.53 µM): 0.854 | relative viability ([2]; first compound 0.08 µM): 0.599 | relative viability ([2]; first compound 0.253 µM): 0.717 | relative viability ([2]; first compound 0.8 µM): 0.754 | relative viability ([2]; first compound 2.53 µM): 0.829 | relative viability ([3]; first compound 0.08 µM): 0.659 | relative viability ([3]; first compound 0.253 µM): 0.612 | relative viability ([3]; first compound 0.8 µM): 0.487 | relative viability ([3]; first compound 2.53 µM): 0.492 | relative viability ([4]; first compound 0.08 µM): 0.832 | relative viability ([4]; first compound 0.253 µM): 0.818 | relative viability ([4]; first compound 0.8 µM): 0.817 | relative viability ([4]; first compound 2.53 µM): 0.829 | relative viability ([5]; first compound 0.08 µM): 0.332 | relative viability ([5]; first compound 0.253 µM): 0.24 | relative viability ([5]; first compound 0.8 µM): 0.31 | relative viability ([5]; first compound 2.53 µM): 0.369 | relative viability ([6]; first compound 0.08 µM): 0.737 | relative viability ([6]; first compound 0.253 µM): 0.693 | relative viability ([6]; first compound 0.8 µM): 0.734 | relative viability ([6]; first compound 2.53 µM): 0.846 | relative viability ([7]; first compound 0.08 µM): 0.829 | relative viability ([7]; first compound 0.253 µM): 0.774 | relative viability ([7]; first compound 0.8 µM): 0.828 | relative viability ([7]; first compound 2.53 µM): 0.853 | relative viability ([8]; first compound 0.08 µM): 0.826 | relative viability ([8]; first compound 0.253 µM): 0.684 | relative viability ([8]; first compound 0.8 µM): 0.745 | relative viability ([8]; first compound 2.53 µM): 0.823 | relative viability ([9]; first compound 0.08 µM): 0.59 | relative viability ([9]; first compound 0.253 µM): 0.666 | relative viability ([9]; first compound 0.8 µM): 0.739 | relative viability ([9]; first compound 2.53 µM): 0.864 | relative viability ([10]; first compound 0.08 µM): 0.532 | relative viability ([10]; first compound 0.8 µM): 0.504 | relative viability ([10]; first compound 2.53 µM): 0.513 | relative viability ([11]; first compound 0.08 µM): 0.783 | relative viability ([11]; first compound 0.253 µM): 0.699 | relative viability ([11]; first compound 0.8 µM): 0.732 | relative viability ([11]; first compound 2.53 µM): 0.614 | relative viability ([12]; first compound 0.08 µM): 0.738 | relative viability ([12]; first compound 0.253 µM): 0.676 | relative viability ([12]; first compound 0.8 µM): 0.659 | relative viability ([12]; first compound 2.53 µM): 0.725 | relative viability ([13]; first compound 0.08 µM): 0.897 | relative viability ([13]; first compound 0.253 µM): 0.473 | relative viability ([13]; first compound 0.8 µM): 0.465 | relative viability ([13]; first compound 2.53 µM): 0.731 | relative viability ([14]; first compound 0.08 µM): 1.02 | relative viability ([14]; first compound 0.253 µM): 0.985 | relative viability ([14]; first compound 0.8 µM): 0.909 | relative viability ([14]; first compound 2.53 µM): 0.661 | relative viability ([15]; first compound 0.08 µM): 0.989 | relative viability ([15]; first compound 0.8 µM): 0.934 | relative viability ([15]; first compound 2.53 µM): 0.951 | relative viability ([16]; first compound 0.08 µM): 0.823 | relative viability ([16]; first compound 0.8 µM): 0.737 | relative viability ([16]; first compound 2.53 µM): 0.738 | relative viability ([17]; first compound 0.08 µM): 0.71 | relative viability ([17]; first compound 0.253 µM): 0.618 | relative viability ([17]; first compound 0.8 µM): 0.625 | relative viability ([17]; first compound 2.53 µM): 0.58 | relative viability ([18]; first compound 0.08 µM): 0.544 | relative viability ([18]; first compound 0.253 µM): 0.568 | relative viability ([18]; first compound 0.8 µM): 0.501 | relative viability ([18]; first compound 2.53 µM): 0.688 | relative viability ([19]; first compound 0.08 µM): 0.544 | relative viability ([19]; first compound 0.253 µM): 0.423 | relative viability ([19]; first compound 0.8 µM): 0.4 | relative viability ([19]; first compound 2.53 µM): 0.443 | relative viability ([20]; first compound 0.08 µM): 0.851 | relative viability ([20]; first compound 0.253 µM): 0.603 | relative viability ([20]; first compound 0.8 µM): 0.727 | relative viability ([20]; first compound 2.53 µM): 0.587 | relative viability ([21]; first compound 0.08 µM): 0.811 | relative viability ([21]; first compound 0.253 µM): 0.713 | relative viability ([21]; first compound 0.8 µM): 0.726 | relative viability ([21]; first compound 2.53 µM): 0.838 | relative viability ([22]; first compound 0.08 µM): 0.735 | relative viability ([22]; first compound 0.253 µM): 0.818 | relative viability ([22]; first compound 0.8 µM): 0.849 | relative viability ([22]; first compound 2.53 µM): 0.85 | relative viability ([23]; first compound 0.08 µM): 0.403 | relative viability ([23]; first compound 0.253 µM): 0.387 | relative viability ([23]; first compound 0.8 µM): 0.411 | relative viability ([23]; first compound 2.53 µM): 0.511

Source: the supplement of paper PMC10307832
